The numbers were not newly measured in patent US6908953B2, “Polymerizable compositions based on epoxides” (ESPE Dental AG, priority 1998, dated 2005), which cites them from elsewhere.

For series [1] the following is noted: prior-art epoxide monomers.
For series [2] the following is noted: in vitro tests, prior-art epoxide monomers.

On to `O=C(OCC1CCC2OC2C1)C1CCC2OC2C1` (stereo not shown) [3,4-epoxycyclohexyl-methyl 3,4-epoxycyclohexanecarboxylate], for which the Cytotoxicity entry in series [1] is listed as “highly cytotoxic”. In addition, in series [2], the Mutagenic properties entry is listed as “mutagenic properties”.
Take `O=C(CCCCC(=O)OC1CCC2OC2C1)OC1CCC2OC2C1` (stereo not shown) [bis(3,4-epoxycyclohexyl adipate)]: the Cytotoxicity result in series [1] is “highly cytotoxic”. In addition, the Mutagenic properties result in series [2] is reported as “mutagenic properties”.
